Test results from patent US9969775B2, “CGRP antagonist peptides” (Ferring B.V., priority 2015, dated 2018).
pIC50: −log10 of the molar value. Where two headings read alike, the source gives them in different places. Numbered stars: 1 amine (or outer) side, 2 acyl side, 3 side chain; on linkers, the order of the positions; unused ones are H or OH. Bridge positions count the residues as written; N and C are the ends. Square brackets hold non-standard residues; d marks the D form. Peptide text beside a SMILES is read from it. * marks the point of attachment. Phe(3-CH2NH2) = O=C([C@H](Cc1cccc(CN[*:3])c1)N[*:1])[*:2]; Phe(2-CONH2) = NC(=O)c1ccccc1C[C@H](N)C(=O)O; Triazol3yl(1,2,4-5-NH2) = Nc1nc(*)n[nH]1; Imidazole4carbonyl = O=C(c1cnc[nH]1)*; Lys(iPr) = CC(C)NCCCC[C@H](N)C(=O)O; Picolinoyl(5-F) = O=C(c1ccc(F)cn1)*; Lys(Me2) = CN(C)CCCC[C@H](N)C(=O)O; Orn(iPr) = CC(C)NCCC[C@H](N)C(=O)O; Orn(Me2) = CN(C)CCC[C@H](N)C(=O)O; Oxazole2carbonyl = O=C(c1ncco1)*; 3Pal = N[C@@H](Cc1cccnc1)C(=O)O; Pyrrole2CO = O=C(c1ccc[nH]1)*; ΔPro = O=C(O)[C@@H]1C=CCN1; Orn = NCCC[C@H](N)C(=O)O; X2 = Cc1n[nH]c(C(=O)*)n1; Dab = NCC[C@H](N)C(=O)O; X1 = O=C(c1ncccc1F)*; X6 = O=C(c1ccncn1)*

Columns and labels:
[1] = target: T1, hCGRP receptor (CALCRL:RAMP1) (Homo sapiens, UniProt O60894+Q16602); assay: CGRP receptor antagonist activity measured by cAMP assay (HTRF); format: cell-based; conditions: for Emax: read-out: hCGRP-R Efficacy Antag (%) Ave; for pIC50: GeneBLAzer CALCRL:RAMP1-CRE-bla Freestyle 293F cells, 30 minutes
T1 construct: host or cells: GeneBLAzer CALCRL:RAMP1-CRE-bla Freestyle 293F

[2] = target: T2, hAM2 receptor (CALCRL:RAMP3) (Homo sapiens, UniProt O60896+Q16602); assay: AM2 receptor antagonist activity measured by cAMP assay (HTRF); format: cell-based; conditions: for Emax: read-out: hAM2-R Efficacy Antag (%) Ave; for pIC50: GeneBLAzer CALCRL:RAMP3-CRE-bla Freestyle 293F cells; for selectivity ratio CGRP/AM2: selectivity ratio for hCGRP over hAM2, calculated from the IC50 values
T2 construct: expressed in transfected cells; host or cells: GeneBLAzer CALCRL:RAMP3-CRE-bla Freestyle 293F
Description: Antagonist activity for the adrenomedullin receptor AM2 was determined using the method described in Example 6 above, with the following modifications. Instead of GeneBLAzer® CALCRL:RAMP1-CRE-bla Freestyle™ 293F cells, GeneBLAzer® CALCRL:RAMP3-CRE-bla Freestyle™ 293F cells were used to test activity at hAM2 receptors. The agonist was human adrenomedullin, instead of α-CGRP.
In Table 5, the selectivity ratio for hCGRP over hAM2 is calculated as hCGRP-R IC50/hAM2-R IC50.

[3] = % MPE: percent of the maximal possible effect, agonist human α-CGRP
[4] = agonist human α-CGRP, read-out: hCGRP-R IC50 Ave
[5] = % MPE: percent of the maximal possible effect, agonist human adrenomedullin
[6] = agonist human adrenomedullin, read-out: hAM2-R IC50 Ave

T2 sequence (Q16602 23-461): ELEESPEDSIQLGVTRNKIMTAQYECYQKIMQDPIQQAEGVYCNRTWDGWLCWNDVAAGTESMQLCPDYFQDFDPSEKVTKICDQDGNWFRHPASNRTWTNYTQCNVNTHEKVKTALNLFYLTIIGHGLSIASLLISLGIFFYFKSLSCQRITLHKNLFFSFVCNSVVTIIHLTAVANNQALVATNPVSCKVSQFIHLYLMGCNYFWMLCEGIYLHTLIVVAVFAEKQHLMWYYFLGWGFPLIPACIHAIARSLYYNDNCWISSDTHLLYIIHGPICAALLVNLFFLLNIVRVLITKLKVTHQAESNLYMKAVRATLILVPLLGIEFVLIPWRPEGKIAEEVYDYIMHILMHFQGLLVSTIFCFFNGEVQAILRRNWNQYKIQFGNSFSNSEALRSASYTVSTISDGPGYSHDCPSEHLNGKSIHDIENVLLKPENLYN
T2 sequence (O60896 24-148): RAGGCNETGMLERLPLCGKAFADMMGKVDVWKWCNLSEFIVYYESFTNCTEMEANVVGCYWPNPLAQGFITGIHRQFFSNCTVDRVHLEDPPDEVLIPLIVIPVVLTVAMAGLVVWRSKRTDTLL
T1 sequence (Q16602 23-461): as the sequence (Q16602 23-461) above
T1 sequence (O60894 27-148): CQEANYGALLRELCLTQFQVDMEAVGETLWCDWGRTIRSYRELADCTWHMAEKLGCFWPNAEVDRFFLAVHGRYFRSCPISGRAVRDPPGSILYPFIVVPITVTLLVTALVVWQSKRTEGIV

Row | Compound | Emax [1, 3] | pIC50 [1, 4] | Emax [2, 5] | pIC50 [2, 6] | selectivity ratio CGRP/AM2 [2] | pIC50 ([1]; hCGRP-R IC50 Ave, agonist human α-CGRP) | Emax [1] | pIC50 ([2]; hAM2-R IC50 Ave, agonist human adrenomedullin) | Emax [2]
1 | CC(C)NCCC[C@@H]1NC(=O)[C@@H](NC(=O)[C@H](Cc2ccccc2C(N)=O)NC(=O)[C@H](NC(=O)c2ccc(F)cn2)C(C)C)CSSC[C@@H](C(=O)N[C@@H](Cc2cccnc2)C(N)=O)NC(=O)[C@H](Cc2cccnc2)NC(=O)[C@@H]2C=CCN2C(=O)CNC(=O)[C@H](C(C)C)NC(=O)[C@H](CC(=O)O)NC1=O [Compound 38, Picolinoyl(5-F)-D-Val-Phe(2-Cbm)-c(Cys-Orn(iPr)-Asp-Val-Gly-Dhp-3Pal-Cys)-3Pal-NH2] ({Picolinoyl(5-F)}-[dV][Phe(2-CONH2)]C[Orn(iPr)]DVG[ΔPro][3Pal]C[3Pal]-NH2; disulfide 3-10) | 100% | 10.22 | 101% | 7.06 | 1478 | – | – | – | –
2 | CC(C)NCCC[C@@H]1NC(=O)[C@@H](NC(=O)[C@H](Cc2ccccc2C(N)=O)NC(=O)[C@H](NC(=O)c2ccc(F)cn2)C(C)C)CSSC[C@@H](C(=O)N[C@@H](Cc2cccnc2)C(N)=O)NC(=O)[C@H](Cc2cccnc2)NC(=O)[C@@H]2CCCN2C(=O)CNC(=O)[C@H](C(C)C)NC(=O)[C@H](CC(=O)O)NC1=O [Compound 39, Picolinoyl(5-F)-D-Val-Phe(2-Cbm)-c(Cys-Orn(iPr)-Asp-Val-Gly-Pro-3Pal-Cys)-3Pal-NH2] ({Picolinoyl(5-F)}-[dV][Phe(2-CONH2)]C[Orn(iPr)]DVGP[3Pal]C[3Pal]-NH2; disulfide 3-10) | 100% | 9.89 | 101% | 6.56 | 2125 | – | – | – | –
3 | CC(C)NCCC[C@@H]1NC(=O)[C@@H](NC(=O)[C@H](Cc2ccccc2C(N)=O)NC(=O)[C@H](NC(=O)c2ncco2)C(C)C)CSSC[C@@H](C(=O)N[C@@H](Cc2cccnc2)C(N)=O)NC(=O)[C@H](Cc2cccnc2)NC(=O)[C@@H]2CCCN2C(=O)CNC(=O)[C@H](C(C)C)NC(=O)[C@H](CC(=O)O)NC1=O [Compound 40, Oxazole-2-carbonyl-D-Val-Phe(2-Cbm)-c(Cys-Orn(iPr)-Asp-Val-Gly-Pro-3Pal-Cys)-3Pal-NH2] (Oxazole2carbonyl-[dV][Phe(2-CONH2)]C[Orn(iPr)]DVGP[3Pal]C[3Pal]-NH2; disulfide 3-10) | – | – | – | – | 10884 | 10.05 | 100% | 6.01 | 98%
4 | CC(C)NCCCC[C@@H]1NC(=O)[C@@H](NC(=O)[C@H](Cc2ccccc2C(N)=O)NC(=O)[C@H](NC(=O)c2ncco2)C(C)C)CSSC[C@@H](C(=O)N[C@@H](Cc2cccnc2)C(N)=O)NC(=O)[C@H](Cc2cccnc2)NC(=O)[C@@H]2CCCN2C(=O)CNC(=O)[C@H](C(C)C)NC(=O)[C@H](CC(=O)O)NC1=O [Compound 41, Oxazole-2-carbonyl-D-Val-Phe(2-Cbm)-c(Cys-Lys(iPr)-Asp-Val-Gly-Pro-3Pal-Cys)-3Pal-NH2] (Oxazole2carbonyl-[dV][Phe(2-CONH2)]C[Lys(iPr)]DVGP[3Pal]C[3Pal]-NH2; disulfide 3-10) | 100% | 9.89 | 97% | 5.99 | 8075 | – | – | – | –
5 | CC(C)[C@@H]1NC(=O)[C@H](CC(=O)O)NC(=O)[C@H](CCNc2nc(N)n[nH]2)NC(=O)[C@@H](NC(=O)[C@H](Cc2ccccc2C(N)=O)NC(=O)[C@H](NC(=O)c2ncco2)C(C)C)CSSC[C@@H](C(=O)N[C@@H](Cc2cccnc2)C(N)=O)NC(=O)[C@H](Cc2cccnc2)NC(=O)[C@@H]2CCCN2C(=O)CNC1=O [Compound 42, Oxazole-2-carbonyl-D-Val-Phe(2-Cbm)-c(Cys-Dab(Atz)-Asp-Val-Gly-Pro-3Pal-Cys)-3Pal-NH2] (Oxazole2carbonyl-[dV][Phe(2-CONH2)]C[Dab](Triazol3yl(1,2,4-5-NH2))DVGP[3Pal]C[3Pal]-NH2; disulfide 3-10) | 100% | – | 97% | – | – | – | – | – | –
6 | CC(C)NCCC[C@@H]1NC(=O)[C@@H](NC(=O)[C@H](Cc2ccccc2C(N)=O)NC(=O)[C@H](NC(=O)c2ncco2)C(C)C)CSSC[C@@H](C(=O)N[C@@H](Cc2cccnc2)C(N)=O)NC(=O)[C@H](Cc2cccc(CN)c2)NC(=O)[C@@H]2C=CCN2C(=O)CNC(=O)[C@H](C(C)C)NC(=O)[C@H](CC(=O)O)NC1=O [Compound 43, Oxazole-2-carbonyl-D-Val-Phe(2-Cbm)-c(Cys-Orn(iPr)-Asp-Val-Gly-Dhp-Phe(3-CH2NH2)-Cys)-3Pal-NH2] (Oxazole2carbonyl-[dV][Phe(2-CONH2)]C[Orn(iPr)]DVG[ΔPro][Phe(3-CH2NH2)]C[3Pal]-NH2; disulfide 3-10) | 100% | 10.40 | 101% | 6.74 | 4693 | – | – | – | –
7 | CC(C)[C@@H]1NC(=O)[C@H](CC(=O)O)NC(=O)[C@H](CCCNC(=O)[C@@H](N)CCCCN(C)C)NC(=O)[C@@H](NC(=O)[C@H](Cc2ccc(O)cc2)NC(=O)[C@H](NC(=O)c2ncco2)C(C)C)CSSC[C@@H](C(=O)N[C@@H](Cc2cccnc2)C(N)=O)NC(=O)[C@H](Cc2ccccc2)NC(=O)[C@@H]2CCCN2C(=O)CNC1=O [Compound 44, Oxazole-2-carbonyl-D-Val-Tyr-c(Cys-Orn(Lys(Me2))-Asp-Val-Gly-Pro-Phe-Cys)-3Pal-NH2] (Oxazole2carbonyl-[dV]YC[Orn](Lys(Me2))DVGPFC[3Pal]-NH2; disulfide 3-10) | 100% | 9.77 | 100% | 6.94 | 668 | – | – | – | –
8 | CC(C)[C@@H]1NC(=O)[C@H](CC(=O)O)NC(=O)[C@H](CCCNC(=O)[C@@H](N)CCCCN(C)C)NC(=O)[C@@H](NC(=O)[C@H](Cc2ccc(O)cc2)NC(=O)[C@H](NC(=O)c2ccncn2)C(C)C)CSSC[C@@H](C(=O)N[C@@H](Cc2cccnc2)C(N)=O)NC(=O)[C@H](Cc2ccccc2)NC(=O)[C@@H]2CCCN2C(=O)CNC1=O [Compound 45, Pyrimidine-4-carbonyl-D-Val-Tyr-c(Cys-Orn(Lys(Me2))-Asp-Val-Gly-Pro-Phe-Cys)-3Pal-NH2] (X6-[dV]YC[Orn](Lys(Me2))DVGPFC[3Pal]-NH2; disulfide 3-10) | 100% | 9.74 | 98% | 6.70 | 1082 | – | – | – | –
9 | CC(C)[C@@H]1NC(=O)[C@H](CC(=O)O)NC(=O)[C@H](CCCN(C)C)NC(=O)[C@@H](NC(=O)[C@H](Cc2ccc(O)cc2)NC(=O)[C@H](NC(=O)c2ncccc2F)C(C)C)CSSC[C@@H](C(=O)N[C@@H](Cc2cccnc2)C(N)=O)NC(=O)[C@H](Cc2ccccc2)NC(=O)[C@@H]2CCCN2C(=O)CNC1=O [Compound 46, Picolinoyl(3-F)-D-Val-Tyr-c(Cys-Orn(Me2)-Asp-Val-Gly-Pro-Phe-Cys)-3Pal-NH2] (X1-[dV]YC[Orn(Me2)]DVGPFC[3Pal]-NH2; disulfide 3-10) | 100% | 9.82 | 99% | 6.74 | 1189 | – | – | – | –
10 | CC(C)[C@@H]1NC(=O)[C@H](CC(=O)O)NC(=O)[C@H](CCCNC(=N)N)NC(=O)[C@@H](NC(=O)[C@H](Cc2ccc(O)cc2)NC(=O)[C@H](NC(=O)c2c[nH]cn2)C(C)C)CSSC[C@@H](C(=O)N[C@@H](Cc2cccnc2)C(N)=O)NC(=O)[C@H](Cc2ccccc2)NC(=O)[C@@H]2CCCN2C(=O)CNC1=O [Compound 47] (Imidazole4carbonyl-[dV]YCRDVGPFC[3Pal]-NH2; disulfide 3-10) | 100% | – | 99% | – | 1460 | – | – | – | –
11 | CC(C)[C@@H]1NC(=O)[C@H](CC(=O)O)NC(=O)[C@H](CCCNC(=N)N)NC(=O)[C@@H](NC(=O)[C@H](Cc2ccc(O)cc2)NC(=O)[C@H](NC(=O)c2cnc[nH]2)C(C)C)CSSC[C@@H](C(=O)N[C@@H](Cc2cccnc2)C(N)=O)NC(=O)[C@H](Cc2ccccc2)NC(=O)[C@@H]2CCCN2C(=O)CNC1=O [Compound 47] (Imidazole4carbonyl-[dV]YCRDVGPFC[3Pal]-NH2; disulfide 3-10) | – | 9.80 | – | 6.63 | – | – | – | – | –
12 | Cc1n[nH]c(C(=O)N[C@@H](C(=O)N[C@@H](Cc2ccc(O)cc2)C(=O)N[C@H]2CSSC[C@@H](C(=O)N[C@@H](Cc3cccnc3)C(N)=O)NC(=O)[C@H](Cc3ccccc3)NC(=O)[C@@H]3CCCN3C(=O)CNC(=O)[C@H](C(C)C)NC(=O)[C@H](CC(=O)O)NC(=O)[C@H](CCCNC(=N)N)NC2=O)C(C)C)n1 [Compound 48] (X2-[dV]YCRDVGPFC[3Pal]-NH2; disulfide 3-10) | 100% | 10.15 | 96% | 6.40 | 5610 | – | – | – | –
13 | CC(C)[C@@H]1NC(=O)[C@H](CC(=O)O)NC(=O)[C@H](CCCNC(=N)N)NC(=O)[C@@H](NC(=O)[C@H](Cc2ccc(O)cc2)NC(=O)[C@H](NC(=O)c2ccc[nH]2)C(C)C)CSSC[C@@H](C(=O)N[C@@H](Cc2cccnc2)C(N)=O)NC(=O)[C@H](Cc2ccccc2)NC(=O)[C@@H]2CCCN2C(=O)CNC1=O [Compound 49] (Pyrrole2CO-[dV]YCRDVGPFC[3Pal]-NH2; disulfide 3-10) | 100% | 9.72 | 99% | 7.05 | 461 | – | – | – | –
